Laboratory results reported in US9896441B2 (Lycera Corporation, priority 2014, dated 2018).

Key:
[1] = target: T1, RORγ-LBD (Homo sapiens, UniProt P51449); test: RORγ-Ligand Binding Domain (LBD) TR-FRET Assay; assay type: biochemical; settings: for TR-FRET Assay Max Response: maximum response;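 for TR-FRET Assay Max Response: 665/615 nm signal ratio set to 100 without ursolic acid or test compound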
T1 construct: made in house; host or cells: SF9 cells (baculovirus); used as diluted lysate
T1 sequence (P51449 269-508 limits assumed): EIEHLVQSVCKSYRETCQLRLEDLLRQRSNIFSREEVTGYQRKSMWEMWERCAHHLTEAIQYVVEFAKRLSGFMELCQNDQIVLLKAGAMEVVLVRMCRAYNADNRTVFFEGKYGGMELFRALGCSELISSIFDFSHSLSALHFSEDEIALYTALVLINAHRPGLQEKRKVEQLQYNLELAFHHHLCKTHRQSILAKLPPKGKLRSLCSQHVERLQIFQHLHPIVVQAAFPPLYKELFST
Outline: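 His-tagged RORγ-LBD from SF9 baculovirus lysate, ~3 nM final, in 50 mM Tris pH 7.0, 50 mM KCl, 1 mM EDTA, 0.1 mM DTT, 0.01% BSA. Biotinylated SRC1 LXXLL peptide at 200 nM final with 2 μM ursolic acid; TR-FRET read-out, 1% DMSO final.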

[2] = target: T2, Gal4-RORγ-LBD (Homo sapiens, UniProt P51449); test: Gal4-RORγ Luciferase Reporter Assay in HEK-293T Cells; assay type: cell-based; settings: HEK-293 cells; for Gal4-RORγ Assay Max Response: maximum response
T2 construct: expressed in transfected cells
T2 sequence (P51449 269-508 limits assumed): T1 sequence (P51449 269-508 limits assumed)
Outline: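 HEK-293 cells were co-transfected with Gal4-RORγ-LBD and a Gal4-luciferase reporter, then exposed overnight at 37 °C to compounds with […] ursolic acid present (0.2% DMSO). Luminescence was read with One-Glo after 10 min at RT, untreated signal was set as 100, and Max Response was taken as the upper plateau of a 4-parameter logistic fit.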

[3] = luciferase reporter, in presence of ursolic acid

EC50 ([1]; RORγ-LBD TR-FRET assay) [µM]	EC50 [2, 3] [µM]	EC50 ([1]; with 2 μM ursolic acid (RORγ antagonist), highest test concentration 10 μM) [µM]	EC50 ([2]; ursolic acid present, luciferase readout) [µM]	Compound	TR-FRET Assay Max Response ([1]; RORγ-LBD TR-FRET assay)	Gal4-RORγ Assay Max Response [2, 3]
< 0.5	< 0.5			C/C(=C\c1ccc2c(c1)N(S(=O)(=O)c1cccc(C(F)(F)F)c1)C[C@H](CCC(=O)N1CCC(C)(C(=O)O)CC1)O2)c1c(F)cccc1Cl [Example 129N, (S,E)-1-(3-(6-(2-(2-chloro-6-fluorophenyl)-prop-1-en-1-yl)-4-((3-(trifluoromethyl)phenyl)sulfonyl)-3,4-dihydro-2H-benzo[b][1,4]oxazin-2-yl)propanoyl)-4-methylpiperidine-4-carboxylic acid]	*** (a value in the range of greater than 150 to 200)	** (a value in the range of greater than 90 to 150)
< 0.5	< 0.5			O=C(O)C1CCN(C(=O)CC[C@H]2CN(S(=O)(=O)c3cccc(C(F)(F)F)c3)c3cc(/C=C/c4c(F)cccc4Cl)ccc3O2)CC1 [Example 129O, (S,E)-1-(3-(6-(2-chloro-6-fluorostyryl)-4-((3-(trifluoromethyl)phenyl)sulfonyl)-3,4-dihydro-2H-benzo[b][1,4]oxazin-2-yl)propanoyl)piperidine-4-carboxylic acid]	*** (a value in the range of greater than 150 to 200)	** (a value in the range of greater than 90 to 150)
		< 0.5	< 0.5	C/C(=C\c1ccc2c(c1)N(S(=O)(=O)c1cccc(C(F)(F)F)c1)C[C@H](CCC(=O)N(C)CCC(=O)O)O2)c1c(F)cccc1Cl [Example 129Q, (S,E)-3-(3-(6-(2-(2-chloro-6-fluorophenyl)prop-1-en-1-yl)-4-((3-(trifluoromethyl)-phenyl)sulfonyl)-3,4-dihydro-2H-benzo[b][1,4]-oxazin-2-yl)-N-methyl-propanamido)-propanoic acid]		
< 0.5	0.5 to 5			O=S(=O)(c1cccc(C(F)(F)F)c1)N1C[C@H](CO)Oc2ccc(Oc3ccccc3)cc21 [Example 130, (R)-(6-Phenoxy-4-((3-(trifluoromethyl)phenyl)sulfonyl)-3,4-dihydro-2H-benzo[b][1,4]oxazin-2-yl)methanol]	*** (a value in the range of greater than 150 to 200)	** (a value in the range of greater than 90 to 150)
< 0.5	< 0.5			O=S(=O)(c1cccc(C(F)(F)F)c1)N1C[C@H](CO)Oc2ccc(Oc3ccccc3Cl)cc21 [Example 131, (R)-(6-(2-Chlorophenoxy)-4-((3-(trifluoromethyl)phenyl)sulfonyl)-3,4-dihydro-2H-benzo[b][1,4]oxazin-2-yl)methanol]	*** (a value in the range of greater than 150 to 200)	** (a value in the range of greater than 90 to 150)
< 0.5	0.5 to 5			COc1cc(S(=O)(=O)N2C[C@H](CNC(=O)CCC(=O)O)Oc3ccc(/C=C(\C)c4c(F)cccc4Cl)cc32)ccc1F [Example 132, (S,E)-4-(((6-(2-(2-Chloro-6-fluorophenyl)prop-1-en-1-yl)-4-((4-fluoro-3-methoxyphenyl)sulfonyl)-3,4-dihydro-2H-benzo[b][1,4]oxazin-2-yl)methyl)amino)-4-oxobutanoic acid]	**** (a value greater than 200)	*** (a value in the range of greater than 150 to 200)
< 0.5	< 0.5			COC(=O)c1ccc(C(=O)NC[C@H]2CN(S(=O)(=O)c3ccc(F)c(OC)c3)c3cc(/C=C(\C)c4c(F)cccc4Cl)ccc3O2)cc1 [Example 133, Methyl (S,E)-4-(((6-(2-(2-chloro-6-fluorophenyl)prop-1-en-1-yl)-4-((4-fluoro-3-methoxyphenyl)sulfonyl)-3,4-dihydro-2H-benzo[b][1,4]oxazin-2-yl)methyl)carbamoyl)benzoate]	**** (a value greater than 200)	* (a value in the range of 30 to 90)
< 0.5	< 0.5			COc1cc(S(=O)(=O)N2C[C@H](CNC(=O)c3ccc(C(=O)O)cc3)Oc3ccc(/C=C(\C)c4c(F)cccc4Cl)cc32)ccc1F [Example 134, (S,E)-4-(((6-(2-(2-Chloro-6-fluorophenyl)prop-1-en-1-yl)-4-((4-fluoro-3-methoxyphenyl)sulfonyl)-3,4-dihydro-2H-benzo[b][1,4]oxazin-2-yl)methyl)carbamoyl)benzoic acid]	**** (a value greater than 200)	*** (a value in the range of greater than 150 to 200)
< 0.5	0.5 to 5			COc1cc(S(=O)(=O)N2C[C@H](CNC(=O)c3cccc(C(=O)O)c3)Oc3ccc(/C=C(\C)c4c(F)cccc4Cl)cc32)ccc1F [Example 135A, (S,E)-3-(((6-(2-(2-chloro-6-fluorophenyl)prop-1-en-1-yl)-4-((4-fluoro-3-methoxyphenyl)sulfonyl)-3,4-dihydro-2H-benzo[b][1,4]oxazin-2-yl)methyl)carbamoyl)benzoic acid]	*** (a value in the range of greater than 150 to 200)	* (a value in the range of 30 to 90)
< 0.5	> 10			COc1cc(S(=O)(=O)N2C[C@H](CNC(=O)C(=O)O)Oc3ccc(/C=C(\C)c4c(F)cccc4Cl)cc32)ccc1F [Example 135B, (S,E)-2-(((6-(2-(2-chloro-6-fluorophenyl)prop-1-en-1-yl)-4-((4-fluoro-3-methoxyphenyl)sulfonyl)-3,4-dihydro-2H-benzo[b][1,4]oxazin-2-yl)methyl)amino)-2-oxoacetic acid]	**** (a value greater than 200)	
< 0.5	0.5 to 5			COc1cc(S(=O)(=O)N2C[C@H](CNC(=O)[C@H]3CC[C@H](C(=O)O)CC3)Oc3ccc(/C=C(\C)c4c(F)cccc4Cl)cc32)ccc1F [Example 135C, (1S,4r)-4-((((S)-6-((E)-2-(2-chloro-6-fluoro-phenyl)prop-1-en-1-yl)-4-((4-fluoro-3-methoxy-phenyl)sulfonyl)-3,4-dihydro-2H-benzo[b][1,4]oxazin-2-yl)methyl)carbamoyl)-cyclohexane-1-carboxylic acid]	*** (a value in the range of greater than 150 to 200)	* (a value in the range of 30 to 90)
< 0.5	< 0.5			COc1cc(S(=O)(=O)N2c3cc(/C=C/c4c(F)cccc4Cl)ccc3O[C@@H](CO)[C@H]2C)ccc1F [Example 136, ((2R,3R)-6-((E)-2-Chloro-6-fluorostyryl)-4-((4-fluoro-3-methoxyphenyl)sulfonyl)-3-methyl-3,4-dihydro-2H-benzo[b][1,4]oxazin-2-yl)methanol]	**** (a value greater than 200)	** (a value in the range of greater than 90 to 150)
< 0.5	< 0.5			COc1cc(S(=O)(=O)N2c3cc(/C=C(\C)c4c(F)cccc4Cl)ccc3O[C@@H](CNC(C)=O)[C@H]2C)ccc1F [Example 137]	**** (a value greater than 200)	** (a value in the range of greater than 90 to 150)
< 0.5	< 0.5			COc1cc(S(=O)(=O)N2c3cc(OCc4c(F)cccc4Cl)ccc3C=C(CO)[C@H]2C)ccc1F [Example 138, (R)-(7-((2-Chloro-6-fluorobenzyl)oxy)-1-((4-fluoro-3-methoxyphenyl)sulfonyl)-2-methyl-1,2-dihydroquinolin-3-yl)methanol]	** (a value in the range of greater than 90 to 150)	*** (a value in the range of greater than 150 to 200)
< 0.5	0.5 to 5			COc1cc(S(=O)(=O)N2c3cc(OCc4c(F)cccc4Cl)ccc3C=C(CN)[C@H]2C)ccc1F [Example 139, (R)-(7-((2-Chloro-6-fluorobenzyl)oxy)-1-((4-fluoro-3-methoxyphenyl)sulfonyl)-2-methyl-1,2-dihydroquinolin-3-yl)methanamine]		
< 0.5	< 0.5			COc1cc(S(=O)(=O)N2c3cc(OCc4c(F)cccc4Cl)ccc3C=C(CNC(C)=O)[C@H]2C)ccc1F [Example 140, (R)—N-((7-((2-Chloro-6-fluorobenzyl)oxy)-1-((4-fluoro-3-methoxyphenyl)sulfonyl)-2-methyl-1,2-dihydroquinolin-3-yl)methyl)acetamide]		
< 0.5	< 0.5			C/C(=C\c1ccc2c(c1)N(S(=O)(=O)c1cccc(C(F)(F)F)c1)[C@H](C)[C@H](C(=O)O)C2)c1c(F)cccc1Cl [Example 142, (2R,3R)-7-((E)-2-(2-Chloro-6-fluorophenyl)prop-1-en-1-yl)-2-methyl-1-((3-(trifluoromethyl)phenyl)sulfonyl)-1,2,3,4-tetrahydroquinoline-3-carboxylate]	** (a value in the range of greater than 90 to 150)	** (a value in the range of greater than 90 to 150)
